# How the values were obtained:
# Adenosine receptor A1 [1] = target: T1, Adenosine receptor A1 (Rattus norvegicus, UniProt P25099); test: Displacement of [3H]CCPA from A1 receptor in rat brain cortex membranes by liquid scintillation counting method; format: cell membranes
# T1 sequence (P25099 whole entry): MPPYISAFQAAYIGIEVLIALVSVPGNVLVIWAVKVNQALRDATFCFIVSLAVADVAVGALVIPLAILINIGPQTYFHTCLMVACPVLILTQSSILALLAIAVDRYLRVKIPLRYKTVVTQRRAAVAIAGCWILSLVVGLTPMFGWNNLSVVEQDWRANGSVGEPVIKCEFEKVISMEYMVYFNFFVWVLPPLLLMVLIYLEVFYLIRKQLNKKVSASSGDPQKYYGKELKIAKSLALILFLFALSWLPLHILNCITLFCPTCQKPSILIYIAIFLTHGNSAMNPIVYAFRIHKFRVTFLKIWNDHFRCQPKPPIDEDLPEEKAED
# [2] = target: T2, Adenosine receptor A1 (Rattus norvegicus) (UniProt P25099); test: Displacement of [3H]CCPA from A1 receptor in rat brain cortex membranes at 1.5 uM by liquid scintillation counting method; format: cell membranes
# T2 sequence (whole entry): T1 sequence (P25099 whole entry)
# Adenosine receptor A2a [3] = target: Adenosine receptor A2a (Rattus norvegicus, UniProt P30543); test: Displacement of [3H]MSX from A2A receptor in rat brain striatum membranes measured after 30 mins by liquid scintillation counting method; format: cell membranes
# Adenosine receptor A2a (Rattus norvegicus, UniProt P30543), sequence (P30543 whole entry): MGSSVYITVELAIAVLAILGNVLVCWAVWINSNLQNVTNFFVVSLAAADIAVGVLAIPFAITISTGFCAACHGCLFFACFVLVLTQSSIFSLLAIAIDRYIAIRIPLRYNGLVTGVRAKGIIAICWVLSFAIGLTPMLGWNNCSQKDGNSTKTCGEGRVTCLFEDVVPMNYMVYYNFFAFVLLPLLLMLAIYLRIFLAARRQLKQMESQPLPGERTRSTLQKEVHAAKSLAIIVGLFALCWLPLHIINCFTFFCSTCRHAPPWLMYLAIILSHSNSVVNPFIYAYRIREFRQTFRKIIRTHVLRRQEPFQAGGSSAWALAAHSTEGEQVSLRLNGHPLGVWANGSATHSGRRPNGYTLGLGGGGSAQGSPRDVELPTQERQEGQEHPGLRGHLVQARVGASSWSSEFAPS
# [4] = target: T3, Amine oxidase [flavin-containing] B (Homo sapiens, UniProt P27338); test: Inhibition of recombinant human MAO-B expressed in baculovirus infected BTI insect cells preincubated for 30 mins followed by addition of p-tyramine as substrate measured over 45 mins by Amplex Red MAO assay
# T3 sequence (P27338 whole entry): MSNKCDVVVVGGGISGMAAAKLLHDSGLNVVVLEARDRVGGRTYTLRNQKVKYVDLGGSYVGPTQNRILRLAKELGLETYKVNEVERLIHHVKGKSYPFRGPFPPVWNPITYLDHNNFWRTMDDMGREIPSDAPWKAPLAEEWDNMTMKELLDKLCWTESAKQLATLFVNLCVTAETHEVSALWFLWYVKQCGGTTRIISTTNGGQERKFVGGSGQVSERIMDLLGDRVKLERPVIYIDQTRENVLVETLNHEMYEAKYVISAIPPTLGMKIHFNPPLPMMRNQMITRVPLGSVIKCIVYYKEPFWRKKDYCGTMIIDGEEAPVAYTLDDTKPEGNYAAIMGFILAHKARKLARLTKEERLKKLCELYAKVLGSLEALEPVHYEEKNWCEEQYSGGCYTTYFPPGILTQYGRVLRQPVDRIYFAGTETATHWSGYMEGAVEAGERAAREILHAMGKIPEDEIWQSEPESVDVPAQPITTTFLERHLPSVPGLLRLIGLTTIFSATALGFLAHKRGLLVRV
# [5] = target: T3, Amine oxidase [flavin-containing] B; test: Inhibition of recombinant human MAO-B expressed in baculovirus infected BTI insect cells at 10 uM preincubated for 30 mins followed by addition of p-tyramine as substrate measured over 45 mins by Amplex Red MAO assay relative to control; details: 0.75 h
# Adenosine receptor A2b = target: T4, Adenosine receptor A2b (Homo sapiens, UniProt P29275); test: Displacement of [3H]PSB-603 from human A2B receptor expressed in CHO cell membrane; format: cell membranes
# T4 sequence (P29275 whole entry): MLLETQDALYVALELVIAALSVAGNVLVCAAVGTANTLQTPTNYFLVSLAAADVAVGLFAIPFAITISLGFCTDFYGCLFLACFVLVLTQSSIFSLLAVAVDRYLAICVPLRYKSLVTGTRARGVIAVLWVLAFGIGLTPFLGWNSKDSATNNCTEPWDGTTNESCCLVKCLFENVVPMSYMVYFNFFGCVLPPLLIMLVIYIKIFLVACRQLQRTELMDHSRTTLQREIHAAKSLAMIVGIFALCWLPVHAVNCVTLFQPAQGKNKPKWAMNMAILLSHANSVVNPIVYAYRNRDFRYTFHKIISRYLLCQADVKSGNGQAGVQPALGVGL
# [6] = target: T5, Adenosine receptor A2b (Homo sapiens) (UniProt P29275); test: Displacement of [3H]PSB-603 from human A2B receptor expressed in CHO cell membrane at 1 uM relative to control; format: cell membranes
# T5 sequence (whole entry): T4 sequence (P29275 whole entry)
# Adenosine receptor A3 = target: T6, Adenosine receptor A3 (Homo sapiens, UniProt P0DMS8); test: Displacement of [3H]PSB-11 from human A3 receptor expressed in CHO cell membrane by liquid scintillation counting method relative to control; format: cell membranes
# T6 sequence (P0DMS8 whole entry): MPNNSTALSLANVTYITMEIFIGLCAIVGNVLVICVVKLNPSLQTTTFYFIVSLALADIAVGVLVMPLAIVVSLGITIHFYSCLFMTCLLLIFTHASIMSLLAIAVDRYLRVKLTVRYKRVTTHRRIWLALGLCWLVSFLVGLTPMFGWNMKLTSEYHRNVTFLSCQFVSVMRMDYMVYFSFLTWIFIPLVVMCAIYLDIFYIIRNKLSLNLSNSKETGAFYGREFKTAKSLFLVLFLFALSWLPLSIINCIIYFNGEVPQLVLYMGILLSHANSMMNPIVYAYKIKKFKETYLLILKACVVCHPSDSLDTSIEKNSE
# [7] = Thermodynamic solubility of the compound at pH 1; format: physicochemical; details: buffer, read-out: Therm_solubility
# [8] = Thermodynamic solubility of the compound at pH 4; format: physicochemical; details: buffer, read-out: Therm_solubility
# [9] = Thermodynamic solubility of the compound at pH 7.4; format: physicochemical; details: buffer, read-out: Therm_solubility
# [10] = target: T7, Adenosine receptor A3 (Homo sapiens) (UniProt P0DMS8); test: Displacement of [3H]PSB-11 from human A3 receptor expressed in CHO cell membrane at 3 uM by liquid scintillation counting method relative to control relative to control; format: cell membranes
# T7 sequence (whole entry): T6 sequence (P0DMS8 whole entry)
# [11] = target: Adenosine receptor A2a (Rattus norvegicus) (UniProt P30543); test: Displacement of [3H]MSX from A2A receptor in rat brain striatum membranes at 1 uM measured after 30 mins by liquid scintillation counting method relative to control; format: cell membranes
# Adenosine receptor A2a (Rattus norvegicus), sequence (P30543 whole entry): as the sequence (P30543 whole entry) above
# [12] = target: T8, Amine oxidase [flavin-containing] A (Homo sapiens, UniProt P21397); test: Inhibition of recombinant human MAO-A expressed in baculovirus infected BTI insect cells preincubated for 30 mins followed by addition of p-tyramine as substrate measured over 45 mins by Amplex Red MAO assay
# T8 sequence (P21397 whole entry): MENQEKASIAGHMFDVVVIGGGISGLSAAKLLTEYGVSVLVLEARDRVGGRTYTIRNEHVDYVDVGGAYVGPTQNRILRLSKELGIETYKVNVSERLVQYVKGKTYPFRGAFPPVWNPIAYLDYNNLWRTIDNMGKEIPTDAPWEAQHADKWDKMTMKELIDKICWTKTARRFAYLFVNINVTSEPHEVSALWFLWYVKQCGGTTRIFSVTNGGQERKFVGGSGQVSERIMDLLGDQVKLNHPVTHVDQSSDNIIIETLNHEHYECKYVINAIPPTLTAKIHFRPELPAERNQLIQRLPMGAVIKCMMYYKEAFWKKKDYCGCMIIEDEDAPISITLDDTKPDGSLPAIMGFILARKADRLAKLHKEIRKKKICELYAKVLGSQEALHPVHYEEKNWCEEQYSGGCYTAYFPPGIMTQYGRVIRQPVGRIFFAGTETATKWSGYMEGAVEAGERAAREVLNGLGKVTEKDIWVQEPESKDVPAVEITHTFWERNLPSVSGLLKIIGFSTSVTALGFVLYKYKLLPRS
# [13] = target: T8, Amine oxidase [flavin-containing] A; test: Inhibition of recombinant human MAO-A expressed in baculovirus infected BTI insect cells at 10 uM preincubated for 30 mins followed by addition of p-tyramine as substrate measured over 45 mins by Amplex Red MAO assay relative to control; details: 0.75 h
# Adenosine receptor A1 [14] = target: T9, Adenosine receptor A1 (Homo sapiens, UniProt P30542); test: Displacement of [3H]CCPA from human A1 receptor expressed in CHO cell membrane by liquid scintillation counting method; format: cell membranes
# T9 sequence (P30542 whole entry): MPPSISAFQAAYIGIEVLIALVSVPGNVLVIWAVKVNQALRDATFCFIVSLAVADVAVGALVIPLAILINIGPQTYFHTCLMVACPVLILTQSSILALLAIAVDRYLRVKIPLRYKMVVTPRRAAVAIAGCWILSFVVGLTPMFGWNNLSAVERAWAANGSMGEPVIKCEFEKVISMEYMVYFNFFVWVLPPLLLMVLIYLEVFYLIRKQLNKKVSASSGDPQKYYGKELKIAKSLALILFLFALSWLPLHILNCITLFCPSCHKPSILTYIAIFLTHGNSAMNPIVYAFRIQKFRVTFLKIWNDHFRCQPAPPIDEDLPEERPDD
# Adenosine receptor A2a [15] = target: Adenosine receptor A2a (Homo sapiens, UniProt P29274); test: Displacement of [3H]MSX from human A2A receptor measured after 30 mins by liquid scintillation counting method
# Adenosine receptor A2a (Homo sapiens, UniProt P29274), sequence (P29274 whole entry): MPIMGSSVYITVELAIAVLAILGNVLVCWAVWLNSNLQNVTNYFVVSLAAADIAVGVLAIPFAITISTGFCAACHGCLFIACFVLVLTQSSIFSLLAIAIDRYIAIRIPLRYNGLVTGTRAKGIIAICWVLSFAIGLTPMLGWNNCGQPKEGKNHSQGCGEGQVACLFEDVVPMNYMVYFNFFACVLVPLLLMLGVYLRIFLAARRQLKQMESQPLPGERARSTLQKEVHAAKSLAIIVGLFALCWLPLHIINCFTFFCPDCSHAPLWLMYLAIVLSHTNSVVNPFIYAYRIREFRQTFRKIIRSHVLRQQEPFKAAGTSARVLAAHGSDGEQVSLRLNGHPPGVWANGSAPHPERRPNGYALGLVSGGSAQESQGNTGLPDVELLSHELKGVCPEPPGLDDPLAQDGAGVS
# [16] = target: T7, Adenosine receptor A3 (Homo sapiens); test: Displacement of [3H]PSB-11 from human A3 receptor expressed in CHO cell membrane at 10 uM by liquid scintillation counting method relative to control relative to control; format: cell membranes
# [17] = target: T5, Adenosine receptor A2b (Homo sapiens); test: Displacement of [3H]PSB-603 from human A2B receptor expressed in CHO cell membrane at 0.3 uM relative to control; format: cell membranes
Ki (Adenosine receptor A1 [1]) [µM],Activity [2] [%],Ki (Adenosine receptor A2a [3]) [µM],IC50 [4] [µM],inhibition at 10 µM [5] [%],Ki (Adenosine receptor A2b) [µM],Activity [6] [%],Ki (Adenosine receptor A3) [µM],solubility thermodynamic [7] [µg/mL],solubility thermodynamic [8] [µg/mL],solubility thermodynamic [9] [µg/mL],Activity [10] [%],Activity [11] [%],IC50 [12] [µM],inhibition at 10 µM [13] [%],Ki (Adenosine receptor A1 [14]) [µM],Ki (Adenosine receptor A2a [15]) [µM],Activity [16] [%],Activity [17] [%],SMILES
> 1.5,5,6.17,> 10,24,> 1,12,> 3,300,1,< 0.5,9,,,,,,,,Cn1c(=O)c2c(nc3n2CCN(CCc2ccc4c(c2)OCO4)C3)n(C)c1=O
> 1.5,3,> 1,> 10,3,> 1,8,> 3,300,< 0.5,< 0.5,14,27,> 10,34,,,,,COc1ccc(Br)cc1CCN1CCn2c(nc3c2c(=O)n(C)c(=O)n3C)C1
> 1.5,17,0.45,> 10,26,> 1,19,> 10,100,< 0.5,< 0.5,,,> 10,16,3.88,0.512,35,,Cn1c(=O)c2c(nc3n2CCN(CCCc2cccc(Br)c2)C3)n(C)c1=O
0.076,,0.062,,47,> 1,17,> 10,,,< 0.5,,,> 10,3,0.492,0.346,43,,Cn1c(=O)c2c(nc3n2CCN(Cc2csc(-c4ccc(Cl)cc4)n2)C3)n(C)c1=O
> 1.5,13,> 1,> 10,27,> 0.3,10,> 10,,,800,19,28,,,,,19,10,C#CCN1CCn2c(nc3c2c(=O)n(C)c(=O)n3C)C1
> 1.5,-1,> 1,> 10,16,> 0.3,,> 10,1100,60,20,,24,> 10,11,,,32,4,Cn1c(=O)c2c(nc3n2CCN(CCOc2ccccc2)C3)n(C)c1=O
0.437,,0.16,> 10,-2,> 1,6,> 10,,,2,,,> 10,-13,0.073,0.363,40,,Cn1c(=O)c2c(nc3n2CCN(Cc2csc(-c4cccc(Cl)c4)n2)C3)n(C)c1=O
> 1.5,-4,> 1,> 10,27,> 1,10,> 3,> 1500,< 200,< 70,3,10,> 10,7,,,,,Cn1c(=O)c2c(nc3n2CCN(CCCn2cccc2)C3)n(C)c1=O
> 1.5,12,> 10,7.59,,> 1,13,> 3,,,,11,26,,,,,,,Cn1c(=O)c2c(nc3n2CCN(C2Cc4ccccc4C2)C3)n(C)c1=O

# Source: ChEMBL document CHEMBL4428125, “8-Substituted 1,3-dimethyltetrahydropyrazino[2,1-f]purinediones: Water-soluble adenosine receptor antagonists and monoamine oxidase B inhibitors” (Bioorg Med Chem, 2016)
